Experiment [1] relates to tubulin (colchicine-binding site). In words: Spin column assay with [^3H]colchicine. To be noted: tubulin with [^3H]colchicine and unlabeled competitor, 37° C. 1 h. The procedure:
(§1) Spin column assay. […] The reaction mixtures were incubated at 37° C. for 1 h. The samples were loaded onto Illustra™ MicroSpin™ G-50 columns (GE Healthcare) previously equilibrated with the buffer solution. The columns were placed into 1.5-ml tubes and spun at 750 g for 2 min at room temperature, and radioactivity in the flow-through was analyzed by a scintillation counter.

Experiment [2] relates to tubulin (vinblastine-binding site). In words: Spin column assay with [^3H]vinblastine. To be noted: tubulin with [^3H]vinblastine and unlabeled competitor, 37° C. 1 h. The procedure: as §1
For experiment [3], the system named is KB cells (parental cervical cancer cell line). Put plainly: Inhibition of cell proliferation, xCelligence cell index. The class given is cell-based. The settings on record: Homo sapiens, 72 hr post compound treatment, read-out: calculated IC50.
Source text: (§2) The biological activity of compounds disclosed herein was monitored and profiled using the Real-Time Cell Electronic Sensing (RT-CES®) system from ACEA Biosciences, Inc. The RT-CES system utilizes cell-substrate impedance technology to monitor cellular behavior inside tissue culture wells in a microtiter plate format. The technology features in the integration of molecular and cell biology with microelectronics and is based on the electronic detection of biological assay process.
For measurement of cell-substrate or cell-electrode impedance using RT-CES technology, microelectrodes having appropriate geometries are fabricated onto the bottom surfaces of microtiter plate or similar device, facing into the wells. Cells are introduced into the wells of the devices, and make contact to and attach to the electrode surfaces. The presence, absence or change of properties of cells affects the electronic and ionic passage on the electrode sensor surfaces. Measuring the impedance between or among electrodes provides important information about biological status of cells present on the sensors. When there are changes to the biological status of the cells analogue electronic readout signals are measured automatically and in real time, and are converted to digital signals for processing and for analysis. In a RT-CES system, a cell index (arbitrary representation of change in impedance) is automatically derived and provided based on measured electrode impedance values. The cell index obtained for a given well reflects: 1) how many cells are attached to the electrode surfaces in this well; 2) how well cells are attached to the electrode surfaces in this well. […]
To quantify cell status based on the measured cell-electrode impedance, a parameter termed Cell Index is derived. Cell Index is a quantitative measure of the status of the cells in an electrode-containing well. […]
The parental cervical cancer cell line, KB cells were first tested. […] The cell status was monitored prior to and after the compound addition using xCelligence system (Roche). […]
The test system of experiment [4] is KB200 cells over-expressing multiple drug resistant (MDR) gene. The experiment is described as above. To be noted: Homo sapiens, 72 hr post compound treatment, read-out: calculated IC50. The class given is cell-based.
Source text: as §2
For measurement of cell-substrate or cell-electrode impedance using RT-CES technology, microelectrodes having appropriate geometries are fabricated onto the bottom surfaces of microtiter plate or similar device, facing into the wells. Cells are introduced into the wells of the devices, and make contact to and attach to the electrode surfaces. The presence, absence or change of properties of cells affects the electronic and ionic passage on the electrode sensor surfaces. Measuring the impedance between or among electrodes provides important information about biological status of cells present on the sensors. When there are changes to the biological status of the cells analogue electronic readout signals are measured automatically and in real time, and are converted to digital signals for processing and for analysis. In a RT-CES system, a cell index (arbitrary representation of change in impedance) is automatically derived and provided based on measured electrode impedance values. The cell index obtained for a given well reflects: 1) how many cells are attached to the electrode surfaces in this well; 2) how well cells are attached to the electrode surfaces in this well. Thus, the more the cells of same type in similar physiological conditions attach the electrode surfaces, the larger the cell index. And, the better the cells attach to the electrode surfaces (e.g., the cells spread-out more to have larger contact areas, or the cells attach tighter to electrode surfaces), the larger the cell index.
To quantify cell status based on the measured cell-electrode impedance, a parameter termed Cell Index is derived. Cell Index is a quantitative measure of the status of the cells in an electrode-containing well. Under the same physiological conditions, more cells attached on to the electrodes leads to larger cell-electrode resistance value, leading to a larger value for Cell Index. Furthermore, for the same number of cells present in the well, a change in the cell status such as morphology will lead to a change in the Cell Index. […]
The efficacy of these compounds was also tested against KB200 cell over-expressing multiple drug resistant (MDR) gene. […] The cell status was monitored prior to and after the compound addition using xCelligence system (Roche). […]

Broadly, the IC50 is the concentration that inhibits the measured activity by half.

On to `CC[C@]1(O)C[C@@H]2CN(CCc3c([nH]c4ccccc34)[C@@](C(=O)OC)(c3cc4c(cc3OC)N(C)[C@H]3[C@@](O)(C(=O)OC)[C@H](OC(C)=O)[C@]5(CC)C=CCN6CC[C@]43[C@@H]65)C2)C1` [vinblastine, reference compound], for which the “amount of [^3H]colchicine in the flow-through” value in experiment [1] was “did not influence the amount of [^3H]colchicine in the flow-through”. In addition, the “amount of [^3H]vinblastine in the flow-through” value in experiment [2] was “reduced the amount of [^3H]vinblastine found in the flow-through in a concentration-dependent manner”. Further, the figures for the IC50 in experiment [3] and in experiment [4] were 4.74 nM and 135 nM, respectively.

The record behind these values is patent US20110207751A1, “HETEROCYCLIC COMPOUNDS AND USES AS ANTICANCER AGENTS” (priority 2010, published 2011).
